Reference: patent publication US6706663B2, “Herbicidal 3-heterocyclic substituted benzisothiazole and benzisoxazole compounds” (Wyeth, priority 2000, dated 2004)

Experiments:
SETVI (Setaria viridis) = test: Postemergence herbicidal evaluation; type: in vivo, (L.) Beau
Method in brief: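 Ratings use a 0-9 visual scale covering stand, vigor, malformation, size, chlorosis and appearance versus a control, scored 4-5 weeks post-spray. Roughly two-week-old seedlings received about 0.0040-1.000 kg/ha active, applied in 50/50 acetone/water with 0.5% TWEEN 20. Multiple tests per compound were averaged.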

[1] = test system: SAGPY (Sagittaria pygmaea); test: Flooded paddy, preemergence weed control; type: in vivo, L.; details: rated 3-4 weeks after treatment, 0-9 rating scale
Method in brief: (§1)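 Visual 0–9 ratings versus controls scored stand, vigor, malformation, size, chlorosis and overall appearance. Plants grew from seeds or propagating organs sown 0.5 cm deep in silt loam, with water held 1.5–3 cm above the soil for the whole test under greenhouse care.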

ORYSAT (Rice, Tebonnet) = test: Preemergence herbicidal evaluation; type: in vivo, Oryza sativa, (L.) Tebonnet; details: rated 4-5 weeks after treatment
[2] = test system: ECHCG (Echinochloa crus-galli); test: Postemergence herbicidal evaluation; type: in vivo, (L.) Beau
Method in brief: (§2)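 Seedlings grown for about two weeks were sprayed postemergence and then kept under standard greenhouse care. Injury was rated visually 4–5 weeks after treatment on a 0–9 scale against untreated controls, and ratings from repeat tests were averaged.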

[3] = test system: ECHORC (Echinochloa oryzoides); test: Flooded paddy, preemergence weed control; type: in vivo, Echinochloa oryzoides (Ard.) Fritsch.; details: rated 3-4 weeks after treatment, 0-9 rating scale
Method in brief: as §1

[4] = test system: CYPSE (Cyperus serotinus); test: Flooded paddy, preemergence weed control; type: in vivo, Rottb.; details: rated 3-4 weeks after treatment, 0-9 rating scale
Method in brief: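 Herbicidal effect was scored visually on a 0–9 scale against an untreated control 3–4 weeks after treatment. Compounds were applied preemergence as 50/50 v/v aqueous/acetone mixtures into flood water (1.5–3 cm deep over silt loam), at roughly 0.0080 to 0.1250 kg/ha active ingredient.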

ZEAMX (Corn, Field) = test: Postemergence herbicidal evaluation; type: in vivo, Zea mays, L.
Method in brief: as §2

GALAP (Galium aparine) [5] = test: Postemergence herbicidal evaluation; type: in vivo
Method in brief: as §2

[6] = test system: TRZAWR (Wheat, Winter, cv Riband); test: Postemergence herbicidal evaluation; type: in vivo, Triticum aestivum
Method in brief: as §2

GALAP (Galium aparine) [7] = test: Preemergence herbicidal evaluation; type: in vivo; details: rated 4-5 weeks after treatment
Method in brief: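 Each species was sown separately in potting soil over roughly one inch of soil, and the surface sprayed with compound dissolved in aqueous acetone. Assessment used a 0–9 visual scale against a control after four to five weeks.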

| SMILES | Postemergence herbicidal rating, SETVI (SETVI (Setaria viridis); rate 0.0320 kg/ha) | Postemergence herbicidal rating, SETVI (SETVI (Setaria viridis); rate 0.0620 kg/ha) | herbicidal rating, SAGPY ([1]; rate 0.0320 kg/ha) | herbicidal rating, SAGPY ([1]; rate 0.1250 kg/ha) | ORYSAT preemergence herbicidal rating (ORYSAT (Rice, Tebonnet); Rate 0.1250 kg/ha) | ORYSAT preemergence herbicidal rating (ORYSAT (Rice, Tebonnet); Rate 0.2500 kg/ha) | Postemergence herbicidal rating, ECHCG ([2]; rate 0.0320 kg/ha) | Postemergence herbicidal rating, ECHCG ([2]; rate 0.0620 kg/ha) | herbicidal rating, ECHORC ([3]; rate 0.0320 kg/ha) | herbicidal rating, ECHORC ([3]; rate 0.1250 kg/ha) | herbicidal rating, CYPSE ([4]; rate 0.0320 kg/ha) | herbicidal rating, CYPSE ([4]; rate 0.1250 kg/ha) | Postemergence herbicidal rating, ZEAMX (ZEAMX (Corn, Field); rate 0.0320 kg/ha) | Postemergence herbicidal rating, ZEAMX (ZEAMX (Corn, Field); rate 0.0620 kg/ha) | Postemergence herbicidal rating, GALAP (GALAP (Galium aparine) [5]; rate 0.0320 kg/ha) | Postemergence herbicidal rating, GALAP (GALAP (Galium aparine) [5]; rate 0.0620 kg/ha) | Postemergence herbicidal rating, TRZAWR ([6]; rate 0.0320 kg/ha) | Postemergence herbicidal rating, TRZAWR ([6]; rate 0.0620 kg/ha) | GALAP preemergence herbicidal rating (GALAP (Galium aparine) [7]; Rate 0.1250 kg/ha) | GALAP preemergence herbicidal rating (GALAP (Galium aparine) [7]; Rate 0.2500 kg/ha) | other results |
| --- | --- | --- | --- | --- | --- | --- | --- | --- | --- | --- | --- | --- | --- | --- | --- | --- | --- | --- | --- | --- | --- |
| Cc1cccnc1-c1nsc2ccc(-n3c(=O)cc(C(F)(F)F)n(C)c3=O)cc12 [Compound 19, 1-methyl-3-[3-(3-methyl-2-pyridyl)-1,2-benzisothiazol-5-yl]-6-(trifluoromethyl)uracil] | 4.0 | 6.5 | 2.5 | 7.0 | 7.0 | 8.0 | 2.0 | 3.0 | 8.0 | 9.0 | 0.0 | 6.5 | 5.3 | 5.3 | 3.5 | 6.0 | 4.0 | 4.3 | 6.0 | 9.0 | herbicidal rating, SAGPY ([1]; rate 0.0080 kg/ha): 0.0; ORYSAT preemergence herbicidal rating (ORYSAT (Rice, Tebonnet); Rate 0.0620 kg/ha): 5.3; herbicidal rating, ECHORC ([3]; rate 0.0080 kg/ha): 2.0; herbicidal rating, CYPSE ([4]; rate 0.0080 kg/ha): 0.0; GALAP preemergence herbicidal rating (GALAP (Galium aparine) [7]; Rate 0.0620 kg/ha): 0.5 |
| CCOc1cc(OCC)nc(-c2nsc3ccc(-n4c(=O)cc(C(F)(F)F)n(C)c4=O)cc23)n1 [Compound 43, 3-[3-(4,6-diethoxy-2-pyrimidinyl)-1,2-benzisothiazol-5-yl]-1-methyl-6-(trifluoromethyl)uracil] | 5.0 | 4.0 | 0.0 | 2.0 | – | – | 2.0 | 2.0 | 5.0 | 9.0 | 0.0 | 0.0 | 4.5 | 4.5 | 4.0 | 4.0 | 2.5 | 3.5 | – | – | Preemergence herbicidal rating ORYSAT (ORYSAT (Rice, Tebonnet); Rate 0.0620 kg/ha): 1.0; Preemergence herbicidal rating ORYSAT (ORYSAT (Rice, Tebonnet); Rate 0.1250 kg/ha): 2.0; Preemergence herbicidal rating ORYSAT (ORYSAT (Rice, Tebonnet); Rate 0.2500 kg/ha): 2.0; Preemergence herbicidal rating GALAP (GALAP (Galium aparine) [7]; Rate 0.0620 kg/ha): 1.0; Preemergence herbicidal rating GALAP (GALAP (Galium aparine) [7]; Rate 0.1250 kg/ha): 4.0; Preemergence herbicidal rating GALAP (GALAP (Galium aparine) [7]; Rate 0.2500 kg/ha): 5.0 |
| C#CCOC(=O)COc1ccsc1-c1nsc2ccc(-n3c(=O)cc(C(F)(F)F)n(C)c3=O)cc12 [Compound 39, 2-propynyl [[2-[5-[3,6-dihydro-3-methyl-2,6-dioxo-4-(trifluoromethyl)-1(2H)-pyrimidinyl]-1,2-benzisothiazol-3-yl]-3-thienyl]oxy]acetate] | 0.0 | 3.0 | 0.0 | 3.0 | 0.0 | 1.0 | 0.0 | 1.0 | 0.0 | 0.0 | 0.0 | 0.0 | 4.5 | 5.0 | 0.0 | 1.0 | 1.5 | 2.0 | 0.0 | 0.0 | Preemergence herbicidal rating ORYSAT (ORYSAT (Rice, Tebonnet); Rate 0.0620 kg/ha): 0.0; Preemergence herbicidal rating GALAP (GALAP (Galium aparine) [7]; Rate 0.0620 kg/ha): 0.0 |
